Here are results for five compounds from publication PMC10330721, “Chemo-enzymatic synthesis and biological activity evaluation of propenylbenzene derivatives” (Frontiers in Microbiology, 2023).

≈ marks a conversion by molar mass, not a printed value. Read-outs that look alike come from different tables or passages of the source.

For one data set, the system named is C. albicans ATTC18804. Also noted: method as in Kubo et al., 1993. To be noted: C. albicans ATTC18804 ref Kubo et al., 1993; cited from earlier work.
Data set [1] can be described thus: Haemolytic activity assay. Type of data set: cell-based. To be noted: human red blood cells (RBCs) from healthy donors, 37°C, read-out: Percentage of haemolysis. How it is done: This test is based on comparison of the cytotoxicity of all tested compounds in human red blood cells (RBCs) with that in a control group. RBCs for this method were obtained from a blood center from examined and healthy donors. The compounds were tested at 10, 20, 40, 60, 80, and 100 μM concentrations. The control sample contained only ethanol in the same volume as the test samples. […] The samples were incubated at 37°C for 1 h. Then, the absorbance at 540 nm was measured using a UV–Vis spectrophotometer (Specord 40, Analytik Jena, Jena, Germany). The haemolytic activity of the compounds was determined as the ratio of the absorbance of haemoglobin in the test samples to that in completely haemolyzed cells multiplied by 100%.

In a further data set the test system is C. albicans strains. Put plainly: Fungistatic activity assay, broth microdilution, values given over several strains. To be noted: for MIC50: Candida albicans, read-out: MIC50 (over all tested strains). Type of data set: cell-based, Candida albicans. Here is the method: (§1) Fungistatic activity was determined using Candida albicans ATCC 90028 from the American Type Culture Collection (ATCC, Manassas, VA, United States), and clinical isolates, C. albicans 636/20, C. albicans 595/20, and C. albicans 38 obtained from Wrocław Medical University, Wrocław, Poland.
(§2) All compounds were tested for biological activity against C. albicans ATTC 90028, C. albicans 636/20, C. albicans 595/20, and C. albicans 38 using the broth microdilution method. YPD medium (20 g glucose, 20 g Bacto Peptone, 10 g yeast extract, and 1 L of distilled water, pH 6.5) was used for the tests. The compound solutions were prepared in DMSO and diluted in YPD to obtain final concentrations in the range of 10–250 μg/mL. One hundred microlitres of each solution was pipetted into the wells of a 96-well microtiter plate. The inoculum was standardized to 0.5 McFarland standard and then diluted to obtain a final suspension with a cell density of 0.5–2.5 × 10^3 CFU/mL. The inoculum size was 100 μL. The positive control comprised DMSO added in the same concentration as the tested compounds in the inoculum, whereas the negative control consisted of DMSO diluted in the broth without the addition of inoculum. The microtiter plates were incubated in a Biosan PST-60 HL Plate Shaker-Thermostat (Riga, Latvia) at 35°C under shaking at 1,000 rpm for 24 h.

Data set [2] concerns human colon carcinoma Caco-2 cell line. To be noted: ref Lea et al., 2016; Padhy et al., 2022; cited from earlier work.
The next data set concerns MG63 cells. Kind of data set: Resazurin-based viability assay. Type of data set: cell-based, human. To be noted: 24 h, 1, 50 and 200 μg/mL. How it is done:
(§3) HepG2 cells were cultured in Dulbecco’s modified Eagle’s Medium - low glucose (Merck) supplemented with 10% foetal bovine serum (FBS) (Merck). Caco-2 cells were cultured in Dulbecco’s modified Eagle’s medium - high glucose (Merck) supplemented with 10% FBS, 2% HEPES buffer (Thermo Fisher Scientific, Warszawa, Poland), 1% Penicillin–Streptomycin-Amphotericin B Solution (100×, Merck), 1% MEM solution (100×, Thermo Fisher Scientific), and 1% Gentamycin Solution (10 mg/mL, Merck). MG-63 cells were cultured in Minimum Essential Medium (Merck) supplemented with 10% FBS. All cells were cultured in an atmosphere of 5% CO2 at 37°C.
The tested compounds were dissolved in ethanol at 10 mg/mL. The concentrations were then adjusted to 1, 50, and 200 μg/mL in culture medium. Four controls were prepared: no ethanol added, and 0.01, 0.5, and 2% EtOH. The cells were treated with the compounds for 24 h. […] The culture medium was replaced with medium containing 10% resazurin dye. The cells were incubated at 37°C in an atmosphere of 5% CO2 for 2 h. Absorbance levels were measured spectrophotometrically (Epoch) at a wavelengths of 600 nm for resazurin and 690 nm as a reference.

The next data set concerns C. albicans 595/20. Put plainly: Fungistatic activity assay, broth microdilution. Type of data set: cell-based. To be noted: Candida albicans. How it is done:
as §1, §2

In a further data set the test system is HepG2 cells. Kind of data set: Resazurin-based viability assay. Type of data set: cell-based, human. To be noted: 24 h, 1, 50 and 200 μg/mL. How it is done: as §3, with “The human HepG2 and Caco-2 cell lines were obtained from the American Type Culture Collection (HB-8065™ and HTB-37™) and the MG-63 cell line was obtained from the European Collection of Authenticated Cell Cultures (Merck, Poznań, Poland). HepG2” for “HepG2”
HepG2, Caco-2, and […] were seeded in 96-well plates at 20,000 cells per well, and MG-63 cells at 10,000 cells per well, as described previously ([Marycz et al., 2012]; [Kornicka et al., 2017]). The tested compounds were dissolved in ethanol at 10 mg/mL. The concentrations were then adjusted to 1, 50, and 200 μg/mL in culture medium. Four controls were prepared: no ethanol added, and 0.01, 0.5, and 2% EtOH. The cells were treated with the compounds for 24 h. Then, cell viability was evaluated using the resazurin-based assay kit (TOX8), as described previously ([Grzesiak et al., 2011]; [Marycz et al., 2018]). The culture medium was replaced with medium containing 10% resazurin dye. The cells were incubated at 37°C in an atmosphere of 5% CO2 for 2 h. Absorbance levels were measured spectrophotometrically (Epoch) at a wavelengths of 600 nm for resazurin and 690 nm as a reference.

The subject of another data set is RBCs membrane. Kind of data set: Fluorescence spectroscopy of the RBCs membrane (DPH probe anisotropy). Type of data set: cell-based, human. To be noted: membranes of RBCs, 37 °C. Here is the method: Using the DPH probe, the anisotropy values of cell membranes of RBCs modified with the test compounds were measured. RBCs for this analysis were prepared according to the method described in subsection 2.5.3. Then, the DPH probe was added to RBCs with a haematocrit of 0.2%. The final concentration of the probe in the sample was 1.3 μM. The mixture was incubated protected from light at 37°C for 30 min. Then, the compounds dissolved in ethanol were added. The compounds were tested at 20, 60, and 100 μM concentrations. Samples with compounds and control samples with alcohol of the appropriate concentration were incubated at 37°C for 1 h. Measurements in triplicate were made in quartz cuvettes using a CARY Eclipse fluorimeter (Varian, San Diego, CA, United States) at 37°C. The excitation wavelength for the DPH probe is λexc = 360 nm and the emission wavelength is λem = 426 nm.

Data set [3] deals with human osteosarcoma MG63 cell line. The arrangement: method as in Pandit et al., 2020. To be noted: ref Pandit et al., 2020; cited from earlier work.
Data set [4] can be described thus: Free-radical scavenging assay (DPPH test). Type of data set: biochemical. To be noted: DPPH 190 μM in methanol, 1 h, 25°C, absorbance 517 nm. Here is the method: The antiradical activity of all compounds was tested using the 2,2-diphenyl-1-picrylhydrazyl (DPPH) test according to a previously described method ([Herald et al., 2012]; [Dudek et al., 2022]). One litre of a fresh solution of 190 μM DPPH in pure methanol was prepared in a dark glass bottle. The solution was kept protected from light and used within a week. The tested compounds and ascorbic acid as a positive control were prepared at concentrations in the range of 5–100 μg/mL. Two hundred microlitres of the test compound dilutions was added to each well of a 96-well microtiter plate. Then, […] of a 190 μM solution of DPPH in methanol was added. DPPH was also added to the negative control, in which 200 μL of methanol was added instead of the test compounds. All samples were tested at least in triplicate. The microtiter plates were incubated in the Biosan PST-60 HL thermoshaker at 25°C under shaking at 1,000 rpm for 1 h. […] EC50 values were calculated using Quest Graph™ EC50 Calculator (AAT Bioquest, Inc.).

The subject of data set [5] is human hepatocellular carcinoma HepG2 cells. Also noted: method as in Yoo et al., 2005; Song et al., 2014, 2020. To be noted: ref Yoo et al., 2005; Song et al., 2014, 2020; cited from earlier work.
For data set [6] the following is noted: cited from earlier work.
The mark [7] stands for this setting: C. albicans 636/20, 595/20, 38 and ATTC90028.

For `C/C=C/c1ccc2c(c1)OCO2` [1a, isosafrole], the MIC in the data set on C. albicans ATTC18804 is 100 µg/mL (≈ 617 µM). Also, in data set [1], the hemolysis at 1 h, 10 µM was 2.41 ± 0.481%; the hemolysis at 1 h, 20 µM was found to be 1.54 ± 0.202%; the hemolysis at 1 h, 40 µM was 2.18 ± 0.153%; the hemolysis at 1 h, 60 µM was found to be 2.4 ± 0.446%. Further, in [1], the hemolysis at 1 h, 80 µM was 2.585 ± 0.014% and the hemolysis at 1 h, 100 µM stood at 2.55 ± 0.007%. For the same compound, in the data set on C. albicans strains, the MIC50 is below 100 µg/mL. For the same compound, the “Apoptosis in Caco-2 cell line (in words)” value in data set [2] is “induced apoptosis”. Further, in the data set on MG63 cells, the “Effect on MG63 proliferation / viability (in words)” value was “promoted MGC63 proliferation”. In the data set on C. albicans 595/20 (595/20, 24 h), this compound registered an MIC50 of 65 µg/mL (≈ 401 µM). The “Effect on HepG2 proliferation / viability (in words)” value with HepG2 cells was “more strongly significantly suppressed the viability”. Moreover, in the data set with RBCs membrane (20 µM), the “Fluorescence anisotropy of the DPH probe” value came out at 0.262 ± 0.016. Further, the “Fluorescence anisotropy of the DPH probe” value in the data set on RBCs membrane (60 µM) was 0.264 ± 0.030. Besides, the “Fluorescence anisotropy of the DPH probe” value in the data set with RBCs membrane (100 µM) turned out to be 0.237 ± 0.041.
For the compound `C/C=C/c1ccc(OC)cc1` [3a, anethole], in data set [3], the “Proliferation and apoptosis in MG63 cell line (in words)” value is “caused abrogation in proliferation and induces apoptosis”. For the same compound, in [1], the hemolysis at 1 h, 10 µM was 1.36 ± 0.296%; the hemolysis at 1 h, 20 µM was 1.14 ± 0.159%; the hemolysis at 1 h, 40 µM is 2.23 ± 0.13%; the hemolysis at 1 h, 60 µM was found to be 2.54 ± 0.267%. In [1], the hemolysis at 1 h, 80 µM came out at 2.2 ± 0.108% and the hemolysis at 1 h, 100 µM turned out to be 2.5 ± 0.39%. In addition, the MIC50 in the data set on C. albicans strains (setting [7]) was in the range of 62 to 100 µg/mL (≈ 418 to 675 µM). The compound also registered an EC50 antiradical activity in data set [4] of 19.13 µg/mL (≈ 129 µM). Besides, the “Effect on growth of HepG2 cells (in words)” value in data set [5] is listed as “inhibited the growth”. Also, the MIC50 in the data set with C. albicans 595/20 (C. albicans 595/20, 24 h, 35°C, tested 10–250 μg/mL, read-out: MIC50) worked out at 62 µg/mL (≈ 418 µM). The “Fluorescence anisotropy of the DPH probe” value in the data set on RBCs membrane (20 µM) is on record as 0.263 ± 0.005. In the data set on RBCs membrane (60 µM), the “Fluorescence anisotropy of the DPH probe” value is 0.261 ± 0.009. Moreover, in the data set on RBCs membrane (100 µM), the “Fluorescence anisotropy of the DPH probe” value came to 0.259 ± 0.008.
In the case of `O=C1O[C@H]([C@@H](O)CO)C(O)=C1O` [ascorbic acid, reference compound], the EC50 antiradical activity in [4] was 15.21 µg/mL (≈ 86.4 µM).
Turning to `C=CCc1ccc2c(c1)OCO2` [safrole], in data set [5], the “Effect on growth of HepG2 cells (in words)” value is listed as “inhibited the growth”. In addition, the IC50 antioxidant activity in [6] (ref Eid and Hawash (2021)) is 50.28 µg/mL (≈ 310 µM).
On to isoeugenol [5a], for which the MIC in the data set with C. albicans ATTC18804 was 400 µg/mL. Further, the “MIC50 (over all tested strains)” value with C. albicans strains (setting [7]) is 52 to 88 µg/mL. Moreover, the antioxidant activity in [6] (ref Siva et al. (2019)) is given as 86%. For the same compound, in the data set with MG63 cells, the “Effect on MG63 proliferation / viability (in words)” value is reported as “promoted MGC63 proliferation”. Further, the “Fluorescence anisotropy of the DPH probe” value in the data set with RBCs membrane (20 µM) came to 0.259 ± 0.009; in the data set with RBCs membrane (60 µM) it was 0.272 ± 0.085; with RBCs membrane (100 µM), 0.256 ± 0.023.
